# Tested on: amygdala kindling development in rats
# Experiment: Development/establishment of amygdala kindling under daily dosing
# Assay type: in vivo, rat
# Procedure: The present inventors have studied the effects of nefiracetam on an development process of the amygdaloid kindled seizures and on establishment of kindling through a method described below, and have determined the efficacy of nefiracetam. The evolution process of kindling is tested by use of rats, in which electrodes are placed in the amygdala and kindling stimulation (50 Hz sine wave, duration of 1 second, once per day) is applied at specific intervals for restoration. On the first day, an afterdischarge-provocation threshold is determined without administration of a pharmaceutical. From the second day, kindling stimulation having intensity of the afterdischarge-provocative threshold is applied to rats administered with a specimen at a variety of administration doses, to thereby investigate an effect of the specimen on the evolution process of kindling.
# In this test, the following parameters were evaluated: seizure stage in the process of development of amygdala kindling and afterdischarge duration at the stimulated amygdala.
# [Method] Male Wistar rats (5 to 6 weeks old, weight: 200-250 g, Tokyo Jikken Dobutsu) were used. For each rat, in a manner similar to that in Example 1, there were performed anesthetization, setting of an electrode on the amygdala, and fixation of the electrode at the cranial bone. After a recovery period of at least two weeks, kindling stimulation was initiated.
# Kindling stimulation was performed for one second per day with a sine wave of 50 Hz. On the first day, the afterdischarge threshold was determined, and from the second day, kindling stimulation was performed at the intensity of the threshold. On the first day, nefiracetam was not administered, in order to determine the threshold. For twenty days from the second day, a dose of nefiracetam (45, 90, or 180 mg/kg) was administered orally, and then kindling stimulation was performed 90 minutes after administration. After nefiracetam was administered for twenty days, kindling stimulation was performed without administration for an additional seven days.
# [1] = Test 1, 90 mg/kg p.o. daily for twenty days
# [2] = Test 2, 45 mg/kg p.o. daily for twenty days
# [3] = Test 2, 180 mg/kg p.o. daily for twenty days
smiles,measurement,setting,value
"Cc1cccc(C)c1NC(=O)CN1CCCC1=O [nefiracetam, N-(2,6-dimethylphenyl)-2-(2-oxo-1-pyrrolidinyl)acetamide]",Day on which stage 5 was reached,"90 mg/kg, typical rat (control: ninth day)",tenth day
same,Day on which seizure stage began to progress,"90 mg/kg, typical rat (control: third day)",sixth day
same,Number of stimulations until the completion of stage 5 versus control rats,"45, 90 or 180 mg/kg p.o. daily",no difference was observed
same,Number of samples showing an increase in afterdischarge threshold/total samples,[1],3/6
same,Number of samples showing stage 5 intermittently/total samples,[1],4/6
same,Number of samples showing an increase in afterdischarge threshold/total samples,[2],0/4
same,Number of samples showing stage 5 intermittently/total samples,[2],0/4
same,Number of samples showing an increase in afterdischarge threshold/total samples,[3],2/6
same,Number of samples showing stage 5 intermittently/total samples,[3],5/6
same,Stimulation intensity at which afterdischarge was shown,"one nefiracetam-administered rat, eleventh day",150 μA
same,Seizure stage,"one nefiracetam-administered rat, eleventh day, 150 μA",4
